The RepoRT retention time repository (doi:10.1016/j.foodchem.2021.129757)
Blank lines part the entries; values can stand above or below the compound they belong to.

Columns and labels:
Conditions in all cases: stereoisomer not certain
[1] = RP, Merck LiChrospher RP-18, 250 × 4 mm, 5 µm, 35 °C, 0.3 mL/min, estimated dead time 6.7 min; A: water + 0.5% formic acid; B: acetonitrile + 0.5% formic acid; gradient (min/%B) 0/5 10/5 30/15 45/20 65/20 95/54 110/63 115/5 135/5
[2] = RP, Waters ACQUITY UPLC BEH Shield RP18, 150 × 2.1 mm, 1.7 µm, 40 °C, 0.4 mL/min, estimated dead time 0.83 min; A: water + 0.1% formic acid, pH 3; B: acetonitrile + 0.1% formic acid, pH 3; gradient (min/%B) 0/0 30/50 31/100 37/100 37.1/0
[3] = RP, Waters Atlantis T3, 100 × 2.1 mm, 3 µm, 40 °C, 0.3 mL/min, estimated dead time 0.73 min; A: water + 0.1% trifluoroacetic acid, pH 2; B: acetonitrile + 0.1% trifluoroacetic acid, pH 2; gradient (min/%B) 0/10 1/10 6/40 7/50 8/50 14/70 16/80 20/10 25/10
[4] = RP, Phenomenex Synergi Hydro-RP, 250 × 2 mm, 4 µm, 25 °C, 0.2 mL/min, estimated dead time 2.5 min; A: water + 0.1% formic acid, pH 3; B: acetonitrile + 0.1% formic acid, pH 3; gradient (min/%B) 0/0.5 7/0.5 12/12.5 25/16.3 47/35 48/65 50/65 50.1/0.5
[5] = RP, 150 × 2.1 mm, 2.6 µm, 40 °C, 0.35 mL/min, estimated dead time 0.94 min; A: water + 0.1% formic acid, pH 3; B: acetonitrile + 0.1% formic acid, pH 3; gradient (min/%B) 0/0 1/5 7/45 8.5/80 10.5/80 11/5 12/5
[6] = RP, 150 × 2.1 mm, 2.6 µm, 40 °C, 0.35 mL/min, estimated dead time 0.94 min; A: water + 0.1% formic acid, pH 3; B: acetonitrile + 0.1% formic acid, pH 3; gradient (min/%B) 0/0 1/0 12.5/100 14/100 14.2/0 15/0
[7] = RP, 50 × 0.5 mm, 2.7 µm, 35 °C, 0.01 mL/min, estimated dead time 0.62 min; A: water + 0.1% formic acid, pH 3; B: acetonitrile + 0.1% formic acid, pH 3; gradient (min/%B) 0/5 12/95 14/95 16/5
[8] = RP, Phenomenex Luna Omega Polar C18, 100 × 2.1 mm, 1.6 µm, 40 °C, 0.5 mL/min, estimated dead time 0.44 min; A: water + 0.5% formic acid; B: acetonitrile + 0.5% formic acid; gradient (min/%B) 0/5 3/50 3.1/100 5/100 5.1/5 7/5
[9] = RP, Waters ACQUITY UPLC HSS T3, 100 × 2.1 mm, 50 °C; A: water + 0.1% formic acid, pH 3; B: 30% methanol + 70% acetonitrile + 0.1% formic acid, pH 3; gradient (min/%B) 0/5 1/8 2/15 3/40 4/70 4.5/100 5/100 6.4/100 6.6/5 6.8/5 7/5
[10] = RP, Waters ACQUITY UPLC HSS T3, 100 × 2.1 mm, 1.8 µm, 30 °C, 0.4 mL/min, estimated dead time 0.55 min; A: water + 0.1% formic acid, pH 3; B: acetonitrile + 0.1% formic acid, pH 3; gradient (min/%B) 0/0 2/0 15/100 22/100 22.1/0 26/0
[11] = RP, Waters ACQUITY UPLC BEH Shield RP18, 100 × 2.1 mm, 1.7 µm, 30 °C, 0.6 mL/min, estimated dead time 0.37 min; A: water + 0.1% formic acid, pH 3; B: acetonitrile + 0.1% formic acid, pH 3; gradient (min/%B) 0/0 2/0 7/10 22/95 22.1/0 26/0
[12] = RP, Agilent InfinityLab Poroshell 120 EC-C18, 100 × 3 mm, 2.7 µm, 25 °C, 0.4 mL/min, estimated dead time 1.1 min; A: water + 0.1% formic acid, pH 3; B: acetonitrile + 0.1% formic acid, pH 3; gradient (min/%B) 0/5 10/25 20/40 24/90 25/90 26/5 30/5
[13] = RP, Phenomenex Synergi Hydro-RP, 150 × 2 mm, 4 µm, 30 °C, 0.5 mL/min, estimated dead time 0.6 min; A: water + 0.1% formic acid, pH 3; B: acetonitrile + 0.1% formic acid, pH 3; gradient (min/%B) 0/5 1/5 35/45 40/100 45/100
[14] = RP, Phenomenex Luna C18, 150 × 4.6 mm, 3 µm, 25 °C, 0.5 mL/min, estimated dead time 3.2 min; A: water + 0.1% formic acid, pH 3; B: acetonitrile + 0.1% formic acid, pH 3; gradient (min/%B) 0/0 30/30 35/40 50/80 52/80 60/0 65/0
[15] = RP, Waters ACQUITY UPLC BEH C18, 100 × 2.1 mm, 1.7 µm, 65 °C, 0.4 mL/min, estimated dead time 0.55 min; A: water + 0.1% formic acid, pH 3; B: 80% acetonitrile + 20% acetone + 0.1% formic acid, pH 3; gradient (min/%B) 0/0 5/100 5.5/0 6/0
[16] = RP, Agilent ZORBAX Eclipse XDB-C18, 100 × 2.1 mm, 1.8 µm, 50 °C, 0.4 mL/min, estimated dead time 0.55 min; A: water + 0.1% formic acid, pH 3; B: methanol + 0.1% formic acid, pH 3; gradient (min/%B) 0/2 10/100 14.5/100 14.51/2 16.5/2
[17] = RP, Agilent ZORBAX RRHD Eclipse Plus C18, 50 × 2.1 mm, 1.8 µm, 30 °C, 0.4 mL/min, estimated dead time 0.28 min; A: water + 0.1% formic acid, pH 3; B: acetonitrile + 0.1% formic acid, pH 3; gradient (min/%B) 0/1 5/10 8/25 9.1/99 10/99 12/1
[18] = RP, Agilent ZORBAX RRHD Eclipse Plus C18, 50 × 2.1 mm, 1.8 µm, 30 °C, 0.4 mL/min, estimated dead time 0.28 min; A: water + 0.1% formic acid, pH 3; B: acetonitrile + 0.1% formic acid, pH 3; gradient (min/%B) 0/1 5/10 8/25 9.1/99 10/99 12/99

SMILES: O=Cc1ccc(CO)o1 [5-Hydroxymethylfurfural]
- LC retention time [1]: 24.2 min

SMILES: CC1OC(OCC2OC(Oc3cc4c(O)cc(O)cc4[o+]c3-c3ccc(O)c(O)c3)C(O)C(O)C2O)C(O)C(O)C1O (stereo unspecified) [Cyanidin-3-O-rutinoside]
- LC retention time [2]: 6.43 min
- LC retention time [1]: 49.6 min

SMILES: CCOC(=O)C=Cc1ccc(O)c(O)c1 [Ethyl Caffeate]
- LC retention time [1]: 92.7 min

SMILES: CCOC(=O)c1cc(O)c(O)c(O)c1 [Ethyl Gallate]
- LC retention time [1]: 53.9 min

SMILES: COc1cc(-c2oc3cc(O)cc(O)c3c(=O)c2OC2OC(CO)C(O)C(O)C2O)ccc1O (stereo unspecified) [Isorhamnetin-3-O-glucoside]
- LC retention time [3]: 7.94 min
- LC retention time [1]: 78.5 min
- LC retention time [4]: 38.7 min

SMILES: COc1cc(-c2oc3cc(O)cc(O)c3c(=O)c2OC2OC(COC3OC(C)C(O)C(O)C3O)C(O)C(O)C2O)ccc1O (stereo unspecified) [Isorhamnetin-3-O-rutinoside]
- LC retention time [5]: 5.95 min
- LC retention time [1]: 71.3 min
- LC retention time [6]: 5.8 min

SMILES: CCC=CCC1C(=O)CCC1CC(=O)O (stereo unspecified) [Jasmonic Acid]
- LC retention time [1]: 96.2 min

SMILES: O=c1cc(-c2ccc(O)c(O)c2)oc2cc(OC3OC(CO)C(O)C(O)C3O)cc(O)c12 (stereo unspecified) [Luteolin 7-glucoside]
- LC retention time [5]: 5.79 min
- LC retention time [2]: 12.4 min
- LC retention time [3]: 7.79 min
- LC retention time [1]: 62.2 min
- LC retention time [6]: 5.68 min

SMILES: OC1C(O)C(O)C(O)C(O)C1O (stereo unspecified) [Myo-inositol]
- LC retention time [2]: 1.01 min
- LC retention time [7]: 2.65 min
- LC retention time [8]: 0.54 min
- LC retention time [9]: 0.461 min
- LC retention time [10]: 0.86 min
- LC retention time [11]: 0.58 min

SMILES: O=C1CC(c2ccc(O)cc2)Oc2cc(O)cc(O)c21 (stereo unspecified) [Naringenin]
- LC retention time [5]: 7.97 min
- LC retention time [2]: 21.1 min
- LC retention time [3]: 10.1 min
- LC retention time [12]: 16.3 min
- LC retention time [10]: 11.6 min
- LC retention time [1]: 95.6 min
- LC retention time [6]: 7.61 min

SMILES: O=S(=O)(O)Oc1c(O)cccc1O [Pyrogallol-2-O-sulfate]
- LC retention time [13]: 3.77 min

SMILES: O=c1c(O)c(-c2ccc(OC3OC(CO)C(O)C(O)C3O)c(O)c2)oc2cc(O)cc(O)c12 (stereo unspecified) [Quercetin 4-O-glucoside]
- LC retention time [3]: 7.94 min
- LC retention time [1]: 78 min
- LC retention time [6]: 6.09 min

SMILES: O=c1c(O)c(-c2ccc(OS(=O)(=O)O)c(O)c2)oc2cc(OS(=O)(=O)O)cc(O)c12 [Quercetin disulfate]
- LC retention time [7]: 4.84 min
- LC retention time [14]: 31.6 min

SMILES: C[N+]1(C)CCCC1C(=O)[O-] (stereo unspecified) [Stachydrine]
- LC retention time [2]: 1.06 min
- LC retention time [8]: 0.61 min
- LC retention time [9]: 0.545 min
- LC retention time [10]: 1.03 min
- LC retention time [11]: 0.65 min

SMILES: COc1cc(C=O)cc(OC)c1O [Syringaldehyde]
- LC retention time [5]: 5.66 min
- LC retention time [15]: 2.11 min
- LC retention time [1]: 58.1 min
- LC retention time [6]: 5.74 min

SMILES: COc1ccc(-c2cc(=O)c3c(OC)c(OC)c(OC)c(OC)c3o2)cc1 [Tangeretin]
- LC retention time [16]: 8.59 min
- LC retention time [2]: 26.7 min
- LC retention time [7]: 7.8 min
- LC retention time [8]: 3.93 min
- LC retention time [13]: 36.5 min
- LC retention time [12]: 22.8 min
- LC retention time [14]: 49 min
- LC retention time [10]: 13.7 min
- LC retention time [11]: 16.9 min

SMILES: OCCc1ccc(O)cc1 [Tyrosol]
- LC retention time [1]: 38.7 min

SMILES: Cc1c(C)c2c(c(C)c1O)CCC(C)(CCCC(C)CCCC(C)CCCC(C)C)O2 (stereo not drawn) [alpha-tocopherol]
- LC retention time [16]: 12.5 min
- LC retention time [7]: 13.2 min
- LC retention time [8]: 4.03 min
- LC retention time [15]: 5.55 min
- LC retention time [10]: 15.6 min
- LC retention time [11]: 18.1 min

SMILES: CCC(CCC(C)C1CCC2C3CC=C4CC(O)CCC4(C)C3CCC12C)C(C)C (stereo not drawn) [beta-sitosterol]
- LC retention time [8]: 3.92 min

SMILES: O=C(O)c1cc(O)c(O)c(O)c1 [gallic acid]
- LC retention time [13]: 2.13 min

SMILES: OCCc1ccc(O)c(O)c1 [hydroxytyrosol]
- LC retention time [13]: 5 min

SMILES: O=C(O)/C=C/c1cccc(O)c1 [m-Coumaric acid]
- LC retention time [17]: 7.72 min
- LC retention time [3]: 7.5 min
- LC retention time [9]: 3.53 min
- LC retention time [15]: 2.14 min
- LC retention time [1]: 63.4 min
- LC retention time [4]: 33.9 min
- LC retention time [18]: 7.99 min

Now from value to compound:

- LC retention time [1]: 8.06 min
- LC retention time [4]: 3.87 min
SMILES: O=C(O)CC(O)C(=O)O (stereo unspecified) [malic acid]

- LC retention time [13]: 8.53 min
SMILES: OC1C(O)C(O)C(O)C(O)C1O (stereo unspecified) [myo-inositol]

- LC retention time [5]: 7.28 min
- LC retention time [2]: 15.8 min
- LC retention time [1]: 90.1 min
- LC retention time [6]: 7.02 min
SMILES: COc1cc(C=CC(=O)O)cc(OC)c1OC [o-Methylsinapic acid]

- LC retention time [13]: 0.844 min
SMILES: C[N+]1(C)CCCC1C(=O)[O-] (stereo unspecified) [stachydrine (proline betaine)]

- LC retention time [13]: 4.64 min
SMILES: Cn1cnc2c1c(=O)[nH]c(=O)n2C [theobromine]

- LC retention time [13]: 0.731 min
SMILES: C[n+]1cccc(C(=O)[O-])c1 [trigonelline]

- LC retention time [13]: 21 min
SMILES: O=c1oc2cc(O)ccc2c2ccc(O)cc12 [urolithin A]

- LC retention time [13]: 28.6 min
SMILES: O=c1oc2cc(O)ccc2c2ccccc12 [urolithin B]

- LC retention time [13]: 42 min
SMILES: CC1CCC2(C(=O)O)CCC3(C)C(=CCC4C5(C)CCC(O)C(C)(C)C5CCC43C)C2C1C (stereo unspecified) [ursolic acid]

- LC retention time [13]: 9.27 min
SMILES: COc1cc(C(=O)O)ccc1O [vanillic acid]

- LC retention time [13]: 8.67 min
SMILES: COc1cc(C=O)ccc1O [vanillin]
